Patent publication US4220771A, “2,3-Polymethylene-4-oxo-4H-pyrido[1,2-a]pyrimidines” (Chinoin Gyogyszer es Vegyeszeti Termekek Gyara Rt, priority 1977, dated 1980)
Structures can show the parent of a compound that is named as a salt.

Columns and labels:
Format in all cases: in vivo
[1] = system: mice; test: analgesic activity, "hot plate" test; conditions: for ED50: Mus musculus
Source text: (§1) Also the analgesic and morphine-potentiating activities were investigated on mice. The test results obtained in a "hot plate" test (J. Pharm. Exp. Therp. 80 130 (1944) and Kiserl. Orvostudomany 2, 295 (1950) and results obtained in laparotomic test of Knoll (Animal and Clinical Pharmacologic Techniques in Drug Evaluation. Vol. 2. 305-321 (1967), Year Book Publ. Chicago) are shown in Table 1.

[2] = system: mice; test: toxicity in mice, 48 hours observation, Litchfield-Wilcoxon graphic method
[3] = system: mice; test: morphine-potentiating activity; conditions: i.v., with 5 mg. morphine
Source text: as §1

[4] = toxicity in mice, 48 hours observation, Litchfield-Wilcoxon graphic method; conditions: mouse, in vivo

| Compound | Hot plate ED50 ([1]; i.v.) [mg/kg] | Hot plate ED50 ([1]; s.c.) [mg/kg] | LD50 ([2]; i.v.) [mg/kg] | LD50 ([2]; s.c.) [mg/kg] | Dose potentiating the activity of 5 mg. morphine, ED50 [3] [mg/kg] | ED50 ([1]; iv) [mg/kg] | LD50 at 48 h ([4]; iv) [mg/kg] | ED50 ([1]; sc) [mg/kg] | LD50 at 48 h ([4]; sc) [mg/kg] |
| --- | --- | --- | --- | --- | --- | --- | --- | --- | --- |
| CCOC(=O)c1c[n+](C)c2n(c1=O)C(C)CCC2.COS(=O)(=O)[O-] (stereo not drawn) [PROBON, reference compound] | 43 | 75 | 220 | 790 | 25.0 |  |  |  |  |
| Cc1ccc2nc3c(c(=O)n2c1)CCC3 [2,3-trimethylene-7-methyl-4-oxo-4H-pyrido(1,2-a)pyrimidine-hydrochloride] |  |  |  |  | 1.0 | 47 | 120 |  |  |
| Cc1cccc2nc3c(c(=O)n12)CCCC3 [2,3-tetramethylene-6-methyl-4-oxo-4H-pyrido(1,2-a)pyrimidine-hydrochloride] |  |  |  |  | 7.8 |  | 160 |  |  |
| O=c1c2c(nc3ccccn13)CCCCCC2 [2,3-hexamethylene-4-oxo-4H-pyrido(1,2-a)pyrimidine-hydrochloride] |  |  |  |  | 4.5 |  | 125 | 105 | 500 |
| Cc1ccn2c(=O)c3c(nc2c1)CCC3 [2,3-trimethylene-8-methyl-4-oxo-4H-pyrido(1,2-a)pyrimidine-hydrochloride] |  |  |  |  | 4.8 | 65 | 120 |  |  |
| O=c1c2c(nc3ccccn13)CCCCC2 [2,3-pentamethylene-4-oxo-4H-pyrido(1,2-a)pyrimidine-hydrochloride] |  |  |  |  | 3.7 |  | 210 | 66 | 630 |
| Cc1cc(C)n2c(=O)c3c(nc2c1)CCC3 [2,3-trimethylene-6,8-dimethyl-4-oxo-4H-pyrido(1,2-a)pyrimidine-hydrochloride] |  |  |  |  | 1.0 | 42 | 120 |  |  |
